This data set in a line: Dynamic vapor sorption (DVS), hygroscopicity. The class given is physicochemical. The note with it: for hygroscopicity (DVS, in words): FIGS. 5 and 6.

From US10710987B2, “Hydrochloride salt form for EZH2 inhibition” (Epizyme, Inc., priority 2013, dated 2020) come the findings set out here.

Method: Dynamic Vapor Sorption DVS was measured on a VTI Model SGA-100 system. Measurement method: The relative humidity (RH) was changed in a controlled fashion, in 5% steps from 5.0% to 95.0% then back to 5.0% using the gravimetric vapor sorption system, and the weight percentage change (wt %) of the sample at each stage was measured.

Consider `CCN(c1cc(-c2ccc(CN3CCOCC3)cc2)cc(C(=O)NCc2c(C)cc(C)[nH]c2=O)c1C)C1CCOCC1` [Polymorph A, 4-((3′-(((4,6-Dimethyl-2-oxo-1,2-dihydropyridin-3-yl)methyl)carbamoyl)-5′-(ethyl(tetrahydro-2H-pyran-4-yl)amino)-4′-methyl-[1,1′-biphenyl]-4-yl)methyl)morpholin-4-ium chloride], for which the “hygroscopicity (DVS, in words)” value was “some hygroscopicity”. Also, the “weight gain (DVS)” value (at 75% relative humidity (RH) at 25° C., FIG. 6) was 4-6%.
In the case of `CCN(c1cc(-c2ccc(CN3CCOCC3)cc2)cc(C(=O)NCc2c(C)cc(C)[nH]c2=O)c1C)C1CCOCC1.Cl` [Polymorph C, 4-((3′-(((4,6-Dimethyl-2-oxo-1,2-dihydropyridin-3-yl)methyl)carbamoyl)-5′-(ethyl(tetrahydro-2H-pyran-4-yl)amino)-4′-methyl-[1,1-biphenyl]-4-yl)methyl)morpholin-4-ium chloride], the “hygroscopicity (DVS, in words)” value is given as “non-hygroscopic”. The “weight increase (DVS)” value (upon increasing relative humidity from 5.0% to 95.0%, FIG. 5) is “less than 1.5%”.
